The text below walks through data of article PMC9710854 (Chemical communications (Cambridge, England), 2022).

The nature of series [1]: Experimental partition coefficient. Format: physicochemical.
Series [2] is described as follows: Plasma protein binding estimated by an HPLC-based method. Format: in vitro ADME.
The test system of another series is MM.1S cells. The series can be described thus: Cell viability of MM.1S cells after 24 h treatment. Format: cell-based.
The next series has as its target USP7 catalytic domain (Homo sapiens, UniProt Q93009). The series can be described thus: USP7 inhibition with isolated USP7 catalytic domain using Ub-AMC as a substrate. The series is classed as biochemical.

Chain of USP7 catalytic domain (Q93009 214-521 limits assumed): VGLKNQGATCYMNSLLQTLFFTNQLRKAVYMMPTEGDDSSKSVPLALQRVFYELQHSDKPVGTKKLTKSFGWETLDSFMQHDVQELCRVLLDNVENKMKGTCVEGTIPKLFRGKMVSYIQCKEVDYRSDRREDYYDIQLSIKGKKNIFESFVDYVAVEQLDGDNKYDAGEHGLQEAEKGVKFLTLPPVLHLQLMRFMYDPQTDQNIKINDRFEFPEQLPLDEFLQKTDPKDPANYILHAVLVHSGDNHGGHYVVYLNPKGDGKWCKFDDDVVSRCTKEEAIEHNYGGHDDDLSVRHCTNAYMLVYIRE

In general, logD refers to lipophilicity at a set pH, counting ionised and neutral species. A lower logD goes with lower lipophilicity. As usually defined, the cell viability is a per cent measure of how many cells are alive, often set against a control. Compound `C[C@H](CC(=O)N1CCC(O)(Cn2cnc3cc(NC(=O)CCN4CCN(C)CC4)ccc3c2=O)CC1)c1ccccc1` [Compound 3, XL188] returned a logD in series [1] of 1.3. The PPB in series [2] (plasma protein binding, estimated by an HPLC-based method) is on record as 87%. The compound further yielded a cell viability in the series with MM.1S cells (remaining viability, MM.1S cells, 10 μM) of 43%.

By fraction unbound is commonly meant free concentration divided by total concentration. In general, IC50 refers to the midpoint of a concentration-inhibition curve. In general, viability refers to a read-out of living cells in per cent, often relative to untreated cells. Consider `O=C(C[C@@H](C(F)F)n1ccc(F)n1)N1CCC(O)(Cn2cnc3c(cnn3-c3ccc(F)cc3)c2=O)CC1` [Compound 2, FT671], for which the logD in series [1] is recorded as 2.5. Further, the fraction unbound in series [2] (plasma) is 0.1. Further, half-maximal inhibition at USP7 catalytic domain (IC50) required 32 ± 7 nM. In addition, the viability at 10 µM in the series with MM.1S cells (Homo sapiens, MM1.S, read-out: cell viability) worked out at 41%.
